According to patent publication US5670618A, “Insulin-like peptide” (The State University of New Jersey, priority 1995, dated 1997):

Experiments:
[1] = target: T1, membrane-associated adenylate cyclase from Neurospora crassa (Neurospora crassa, UniProt Q01631); settings: insulin at low doses (10^-9 M); cited from earlier work
T1 construct: host or cells: Neurospora crassa membranes

[2] = test system: solubilized and wheat germ column purified plasma membrane preparations; assay: binding to solubilized and wheat germ column purified plasma membrane preparations; set-up: species or system S. cerevisiae; settings: wheat germ column purified membranes, comparable conditions
[3] = target: isolated plasma membranes (high affinity binding sites for insulin and IGF-I); assay: binding assays with isolated plasma membranes; set-up: species or system S. cerevisiae
[4] = test system: cell wall-less strain of Neurospora; settings: added to nutritionally rich, chemically defined culture medium; cited from earlier work
[5] = test system: insulin receptor-like protein in yeast; assay: autophosphorylation of insulin receptor-like protein in yeast; type: cell-based
[6] = test system: stationary phase cells (yeast); assay: stimulation of glycogen synthesis in yeast (14C-glucose incorporation); type: cell-based; settings: binding to insulin-related receptor on yeast cell, under proper conditions
Description: To assay the effect of ScILP on glycogen synthesis, stationary phase cells are preincubated in phosphate buffer with various doses of ScILP (or a variant thereof). After 30 min of incubation in the presence of 1% glucose and uniformly labelled ^14 C-glucose, the cells are pelleted, resuspended in sodium carbonate, neutralized with HCl and treated with α-amylase to release the glucose incorporated into the newly synthesized glycogen. The enzymatically released glucose is collected and quantitated by scintillation counting.

[7] = test system: cell wall-less strain of Neurospora; settings: cited from earlier work
Tetrahymena pyriformis = settings: cited from earlier work
intact yeast cells = assay: porcine 125I-insulin binding and displacement, intact yeast cells; set-up: species or system S. cerevisiae
Description: Insulin binding studies with intact logarithmic and stationary phase yeast cells were performed under typical conditions for mammalian cells (25,26). In logarithmic phase yeast, porcine ^125 I-insulin binding had reached apparent equilibrium by 1-2 h and represented ca. 0.5% of the total counts specifically bound (FIG. 2a). At this time, greater than 95% of the labelled insulin appeared to be intact, as judged by TCA precipitable counts. Unlabelled porcine insulin displaced labelled insulin from intact yeast cells in a dose dependent fashion with 50% bound occurring around 10^-9 M (FIG. 2b). This value is in good agreement with the value obtained for displacement of insulin from mammalian cells.

T1 sequence (Q01631 whole entry): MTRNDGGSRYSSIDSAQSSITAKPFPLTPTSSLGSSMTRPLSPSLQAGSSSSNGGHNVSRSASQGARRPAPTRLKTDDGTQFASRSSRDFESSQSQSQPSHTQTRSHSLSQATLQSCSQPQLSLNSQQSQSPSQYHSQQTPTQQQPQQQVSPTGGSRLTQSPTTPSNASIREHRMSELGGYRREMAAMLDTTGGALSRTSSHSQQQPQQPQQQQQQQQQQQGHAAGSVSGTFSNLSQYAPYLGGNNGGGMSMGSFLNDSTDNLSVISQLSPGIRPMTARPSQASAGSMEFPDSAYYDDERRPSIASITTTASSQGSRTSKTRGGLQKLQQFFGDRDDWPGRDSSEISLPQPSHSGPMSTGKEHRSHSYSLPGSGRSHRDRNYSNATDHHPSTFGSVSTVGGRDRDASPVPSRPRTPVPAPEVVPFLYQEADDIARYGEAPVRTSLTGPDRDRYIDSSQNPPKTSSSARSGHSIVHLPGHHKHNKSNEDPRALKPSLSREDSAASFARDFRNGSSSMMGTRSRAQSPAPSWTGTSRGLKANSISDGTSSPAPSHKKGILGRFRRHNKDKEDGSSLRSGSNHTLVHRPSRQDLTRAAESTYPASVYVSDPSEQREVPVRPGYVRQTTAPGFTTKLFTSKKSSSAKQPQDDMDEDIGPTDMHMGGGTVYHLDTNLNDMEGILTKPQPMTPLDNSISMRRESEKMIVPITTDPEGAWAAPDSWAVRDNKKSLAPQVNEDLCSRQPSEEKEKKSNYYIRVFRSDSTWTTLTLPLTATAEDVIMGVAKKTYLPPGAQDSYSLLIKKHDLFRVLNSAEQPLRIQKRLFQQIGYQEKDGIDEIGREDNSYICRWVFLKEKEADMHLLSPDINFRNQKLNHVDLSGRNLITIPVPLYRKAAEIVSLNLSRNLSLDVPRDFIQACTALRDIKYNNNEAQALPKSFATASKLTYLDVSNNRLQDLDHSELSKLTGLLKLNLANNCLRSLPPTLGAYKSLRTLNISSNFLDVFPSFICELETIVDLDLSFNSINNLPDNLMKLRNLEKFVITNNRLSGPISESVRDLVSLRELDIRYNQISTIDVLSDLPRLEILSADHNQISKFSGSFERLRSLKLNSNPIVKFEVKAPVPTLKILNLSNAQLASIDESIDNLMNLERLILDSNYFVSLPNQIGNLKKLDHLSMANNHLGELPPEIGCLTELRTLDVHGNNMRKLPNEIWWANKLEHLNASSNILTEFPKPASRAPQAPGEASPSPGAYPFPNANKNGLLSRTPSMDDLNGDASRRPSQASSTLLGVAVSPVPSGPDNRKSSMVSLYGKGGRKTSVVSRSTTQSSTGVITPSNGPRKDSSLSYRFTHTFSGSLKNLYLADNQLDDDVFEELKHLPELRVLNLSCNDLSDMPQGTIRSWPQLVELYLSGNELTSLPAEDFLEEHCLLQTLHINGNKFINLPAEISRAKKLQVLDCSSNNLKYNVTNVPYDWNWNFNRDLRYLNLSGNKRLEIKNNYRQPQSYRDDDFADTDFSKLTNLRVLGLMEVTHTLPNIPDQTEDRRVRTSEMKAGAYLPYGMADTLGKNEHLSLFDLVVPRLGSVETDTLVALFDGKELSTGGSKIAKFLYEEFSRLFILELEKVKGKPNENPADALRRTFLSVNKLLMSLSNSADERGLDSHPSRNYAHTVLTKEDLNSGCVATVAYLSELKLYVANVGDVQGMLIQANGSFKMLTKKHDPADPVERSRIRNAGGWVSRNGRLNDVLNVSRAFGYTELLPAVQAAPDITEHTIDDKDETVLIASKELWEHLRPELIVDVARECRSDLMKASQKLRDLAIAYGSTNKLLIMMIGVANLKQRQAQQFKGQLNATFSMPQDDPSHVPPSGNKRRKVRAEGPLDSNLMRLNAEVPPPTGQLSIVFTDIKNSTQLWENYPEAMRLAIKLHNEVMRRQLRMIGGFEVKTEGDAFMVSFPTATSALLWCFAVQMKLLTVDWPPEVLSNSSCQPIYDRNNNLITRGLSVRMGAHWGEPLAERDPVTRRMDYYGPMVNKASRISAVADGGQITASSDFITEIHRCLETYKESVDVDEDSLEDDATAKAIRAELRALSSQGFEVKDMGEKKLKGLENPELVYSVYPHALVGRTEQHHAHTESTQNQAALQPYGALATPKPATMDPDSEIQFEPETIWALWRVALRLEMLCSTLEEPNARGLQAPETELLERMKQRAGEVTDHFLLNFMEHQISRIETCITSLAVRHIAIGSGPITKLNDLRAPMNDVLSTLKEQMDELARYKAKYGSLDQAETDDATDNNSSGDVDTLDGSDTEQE

glucagon
effect on adenylate cyclase specific activity [1]: stimulated adenylate cyclase activity

insulin-like growth factor (IGF-I)
specific binding (of 4-5% total binding) [2]: 1-2%

insulin
Kd [3]: 0.7 nM | specific binding (of 4-5% total binding) [2]: 1-2%

proinsulin
influence on growth, morphology and viability [4]: inactive

reduced insulin
influence on growth, morphology and viability [4]: inactive

mammalian insulin
influence on growth, morphology and viability [4]: distinctively different morphology, enhanced growth, and extension of viability at the stationary phase in culture | autophosphorylation of insulin receptor-like protein on tyrosine residues [5]: results in its autophosphorylation on tyrosine residues | effect on glycogen synthesis [6]: stimulates glycogen synthesis

bovine insulin
increase of 14C-labelled glucose incorporation into glycogen ([7]; 30 min treatment, 100 nM): 41% | more glycogen than control cells ([7]; cells grown in presence of 100 nM insulin): 40% | intracellular levels of UDPG-glucose by 31P-NMR [7]: increase | effect on glucose uptake (Tetrahymena pyriformis): small effect | effect on adenylate cyclase specific activity [1]: significantly inhibit

porcine insulin
labelled insulin intact, judged by TCA precipitable counts (intact yeast cells; at apparent equilibrium of binding (1-2 h)): greater than 95% | IC50 (intact yeast cells; intact yeast cells, dose dependent displacement, read-out: concentration of unlabelled insulin at 50% bound (displacement of labelled insulin)): ~1 nM | time to apparent binding equilibrium (intact yeast cells; logarithmic phase yeast): 1 to 2 h | total counts specifically bound (intact yeast cells; logarithmic phase yeast, at apparent equilibrium): ca. 0.5%
